Test results reported in patent publication US9802960B2 (MILLENNIUM PHARMACEUTICALS, INC., priority 2014, dated 2017).

Target: Human VPS34 (Homo sapiens (Human), UniProt Q8NEB9)
Test: Human VPS34 enzyme assay (Adapta TR-FRET)
Type: biochemical
Conditions: for inhibition at 1.11 µM / Percent Inhibition: compound concentration 1.11 μM; for inhibition at 1.11 µM: read-out: Percent Inhibition; for IC50: IC50 range class

Chain of Human VPS34 (Q8NEB9 whole entry): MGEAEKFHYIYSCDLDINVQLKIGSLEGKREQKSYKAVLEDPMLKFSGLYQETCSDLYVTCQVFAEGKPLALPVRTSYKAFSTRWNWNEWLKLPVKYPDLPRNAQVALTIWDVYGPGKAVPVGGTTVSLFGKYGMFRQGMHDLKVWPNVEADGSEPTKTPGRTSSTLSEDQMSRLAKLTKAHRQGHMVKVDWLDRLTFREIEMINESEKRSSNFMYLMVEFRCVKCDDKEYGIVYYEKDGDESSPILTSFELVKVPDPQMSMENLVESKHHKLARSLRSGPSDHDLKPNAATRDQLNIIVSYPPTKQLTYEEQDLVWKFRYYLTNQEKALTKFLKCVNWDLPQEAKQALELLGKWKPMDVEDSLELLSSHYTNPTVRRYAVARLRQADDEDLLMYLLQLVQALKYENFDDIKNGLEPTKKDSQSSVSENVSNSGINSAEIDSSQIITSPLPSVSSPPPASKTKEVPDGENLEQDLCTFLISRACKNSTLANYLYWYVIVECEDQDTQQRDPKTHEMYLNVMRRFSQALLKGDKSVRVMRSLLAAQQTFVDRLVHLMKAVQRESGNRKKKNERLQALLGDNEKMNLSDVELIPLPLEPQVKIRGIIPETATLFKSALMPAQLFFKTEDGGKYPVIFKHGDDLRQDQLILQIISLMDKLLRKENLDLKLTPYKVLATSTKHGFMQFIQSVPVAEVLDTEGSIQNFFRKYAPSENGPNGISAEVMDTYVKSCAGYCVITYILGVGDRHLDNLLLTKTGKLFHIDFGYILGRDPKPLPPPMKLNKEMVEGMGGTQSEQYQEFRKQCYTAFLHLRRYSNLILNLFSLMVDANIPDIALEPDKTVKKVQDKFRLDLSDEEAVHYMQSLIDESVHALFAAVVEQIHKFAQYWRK

SMILES	inhibition at 1.11 µM	Percent Inhibition	IC50
COC(=O)Nc1cc(-c2cnc(Cl)c(NS(=O)(=O)c3ccc(F)cc3F)c2C)ccn1 [Compound I-255, methyl (6-chloro-5-{[(2,4-difluorophenyl)sulfonyl]amino}-4-methyl-3,4′-bipyridin-2′-yl)carbamate]	95%	–	–
CNc1c(Cl)ncc(-c2ccnc(Nc3ccnc(C)n3)c2)c1C [Compound I-256, 6-chloro-N~5~,4-dimethyl-N~2~′-(2-methylpyrimidin-4-yl)-3,4′-bipyridine-2′,5-diamine]	94%	–	–
CC(=O)Nc1cc(-c2cnc(C)c(NS(=O)(=O)N3CCC3)c2)ccn1 [Compound I-257, N-{5-[(azetidin-1-ylsulfonyl)amino]-6-methyl-3,4′-bipyridin-2′-yl}acetamide]	> 99%	–	–
CC(=O)Nc1cc(-c2cc(NS(=O)(=O)c3ccc(F)cc3F)c(C)[n+]([O-])c2)ccn1 [Compound I-258, N-[4-(5-{[(2,4-difluorophenyl)sulfonyl]amino}-6-methyl-1-oxidopyridin-3-yl)pyridin-2-yl]acetamide]	88%	–	–
CCc1c(-c2ccnc(Nc3ccnc(C)n3)c2)cnc(Cl)c1NS(=O)(=O)c1ccc(F)cc1F [Compound I-259, N-{6-chloro-4-ethyl-2′-[(2-methylpyrimidin-4-yl)amino]-3,4′-bipyridin-5-yl}-2,4-difluorobenzene sulfonamide]	–	79%	–
CC(=O)Nc1cc(-c2cnc(C)c(NS(=O)(=O)N(C)C)c2C)ccn1 [Compound I-260, N-{5-[(dimethylsulfamoyl)amino]-4,6-dimethyl-3,4′-bipyridin-2′-yl}acetamide]	91%	–	–
Cc1nccc(Nc2cc(-c3cnc(C)c(C(=O)N4CCCCC4)c3)ccn2)n1 [Compound I-262, {6-methyl-2′-[(2-methylpyrimidin-4-yl)amino]-3,4′-bipyridin-5-yl}(piperidin-1-yl)methanone]	81%	–	–
Cc1ncc(-c2ccnc(-n3cnc4c(C)nccc43)c2)cc1NS(=O)(=O)N(C)C [Compound I-263, N,N-dimethyl-N-[6-methyl-2′-(4-methyl-1H-imidazo[4,5-c]pyridin-1-yl)-3,4′-bipyridin-5-yl]sulfuric diamide]	53%	–	–
Cc1c(-c2ccnc(Nc3ccnc(-c4ccccc4)n3)c2)cnc(Cl)c1NS(=O)(=O)c1ccc(F)cc1F [Compound I-264, N-{6-chloro-4-methyl-2′-[(2-phenylpyrimidin-4-yl)amino]-3,4′-bipyridin-5-yl}-2,4-difluorobenzenesulfonamide]	100%	–	–
Cc1ncc(-c2ccnc(Nc3ncccn3)c2)cc1NS(=O)(=O)c1ccc(F)cc1F [Compound I-265, 2,4-difluoro-N-[6-methyl-2′-(pyrimidin-2-ylamino)-3,4′-bipyridin-5-yl]benzenesulfonamide]	> 99%	–	–
Cc1nccc(Nc2cc(-c3cnc(C)c(C(=O)N(C)C)c3)ccn2)n1 [Compound I-266, N,N,6-trimethyl-2′-[(2-methylpyrimidin-4-yl)amino]-3,4′-bipyridine-5-carboxamide]	100%	–	–
Cc1ncc(-c2ccnc(NC(=O)C3CC3(F)F)c2)cc1NS(=O)(=O)c1ccc(F)cc1F (centres unmarked) [Compound I-267a, N-(5-{[(2,4-difluorophenyl)sulfonyl]amino}-6-methyl-3,4′-bipyridin-2′-yl)-2,2-difluorocyclopropanecarboxamide]	97%	–	–
COc1ncc(-c2ccnc(NC(C)=O)c2)c(C)c1NS(=O)(=O)N(C)C [Compound I-268, N-{5-[(dimethylsulfamoyl)amino]-6-methoxy-4-methyl-3,4′-bipyridin-2′-yl}acetamide]	100%	–	–
CC(=O)Nc1cc(-c2cnc(C)c(NS(=O)(=O)N3CCN(C)CC3)c2)ccn1 [Compound I-269, N-(6-methyl-5-{[(4-methylpiperazin-1-yl)sulfonyl]amino}-3,4′-bipyridin-2′-yl)acetamide]	> 99%	–	–
Cc1ncc(-c2ccnc(Nc3nc4ccccc4s3)c2)cc1NS(=O)(=O)c1ccc(F)cc1F [Compound I-271, N-[2′-(1,3-benzothiazol-2-ylamino)-6-methyl-3,4′-bipyridin-5-yl]-2,4-difluorobenzenesulfonamide]	91%	–	–
Cc1cc(Nc2cc(-c3cnc(Cl)c(NS(=O)(=O)c4ccc(F)cc4F)c3C)ccn2)ccn1 [Compound I-272, N-{6-chloro-4-methyl-2′-[(2-methylpyridin-4-yl)amino]-3,4′-bipyridin-5-yl}-2,4-difluorobenzenesulfonamide]	> 99%	–	–
Cc1cccc(Nc2cc(-c3cnc(C)c(NS(=O)(=O)c4ccc(F)cc4F)c3)ccn2)n1 [Compound I-276, 2,4-difluoro-N-{6-methyl-2′-[(6-methylpyridin-2-yl)amino]-3,4′-bipyridin-5-yl}benzenesulfonamide]	96%	–	< 10 nM
Cc1nccc(Nc2cc(-c3cnc(N)c(C(=O)N(C)C45CC(C4)C5)c3)ccn2)n1 [Compound I-277, 6-amino-N-(bicyclo[1.1.1]pent-1-yl)-N-methyl-2′-[(2-methylpyrimidin-4-yl)amino]-3,4′-bipyridine-5-carboxamide]	–	100%	–

Second part, led by results:

inhibition at 1.11 µM	Percent Inhibition	SMILES	IC50
> 99%	–	CCN(C)S(=O)(=O)Nc1cc(-c2ccnc(NC(C)=O)c2)cnc1C [Compound I-273, N-(5-{[ethyl(methyl)sulfamoyl]amino}-6-methyl-3,4′-bipyridin-2′-yl)acetamide]	–
> 99%	–	CC(=O)Nc1cc(-c2cnc(C)c(NS(=O)(=O)N3CCCC3)c2)ccn1 [Compound I-274, N-{6-methyl-5-[(pyrrolidin-1-ylsulfonyl)amino]-3,4′-bipyridin-2′-yl}acetamide]	–
> 99%	–	Cc1nccc(Nc2cc(-c3cnc(C)c(C(=O)N(C)C45CC(C4)C5)c3)ccn2)n1 [Compound I-275, N-(bicyclo[1.1.1]pent-1-yl)-N,6-dimethyl-2′-[(2-methylpyrimidin-4-yl)amino]-3,4′-bipyridine-5-carboxamide]	–
> 99%	–	CCc1c(-c2ccnc(NC(=O)C3CC3)c2)cnc(Cl)c1NS(=O)(=O)c1ccc(F)cc1F [Compound I-278, N-(6-chloro-5-{[(2,4-difluorophenyl)sulfonyl]amino}-4-ethyl-3,4′-bipyridin-2′-yl)cyclopropanecarboxamide]	–
93%	–	Cc1nccc(Nc2cc(-c3cnc(O)c(S(=O)(=O)NC4CCC4)c3)ccn2)n1 [Compound I-279, N-cyclobutyl-6-hydroxy-2′-[(2-methylpyrimidin-4-yl)amino]-3,4′-bipyridine-5-sulfonamide]	–
83%	–	Cc1nccc(Nc2cc(-c3cnc(C)c(C(N)=O)c3)ccn2)n1 [Compound I-280, 6-methyl-2′-[(2-methylpyrimidin-4-yl)amino]-3,4′-bipyridine-5-carboxamide]	–
40%	–	Cc1ncc(-c2ccnc(N)c2)cc1NS(=O)(=O)N(C)C [Compound I-281, N′-(2′-amino-6-methyl-3,4′-bipyridin-5-yl)-N,N-dimethylsulfuric diamide]	–
94%	–	Cc1c(-c2ccnc(Nc3ccncn3)c2)cnc(Cl)c1NS(=O)(=O)c1ccc(F)cc1F [Compound I-282, N-[6-chloro-4-methyl-2′-(pyrimidin-4-ylamino)-3,4′-bipyridin-5-yl]-2,4-difluorobenzenesulfonamide]	–
> 99%	–	CC(=O)Nc1cc(-c2cnc(N(C)C)c(C(=O)NC34CC(C3)C4)c2)ccn1 [Compound I-283, 2′-Acetamido-N-(bicyclo[1.1.1]pent-1-yl)-6-(dimethylamino)-3,4′-bipyridine-5-carboxamide]	–
> 99%	–	CN(C)c1ncc(-c2ccnc(Nc3ccncn3)c2)cc1C(=O)N(C)C12CC(C1)C2 [Compound I-284, N-(bicyclo[1.1.1]pent-1-yl)-6-(dimethylamino)-N-methyl-2′-(pyrimidin-4-ylamino)-3,4′-bipyridine-5-carboxamide]	–
85%	–	Cc1nccc(Nc2cc(-c3cnc(C)c(C(=O)NCC4CC4)c3)ccn2)n1 [Compound I-285, N-(cyclopropylmethyl)-6-methyl-2′-((2-methylpyrimidin-4-yl)amino)-[3,4′-bipyridine]-5-carboxamide]	–
> 99%	–	Cc1nccc(Nc2cc(-c3cnc(C)c(NS(=O)(=O)N(C)C)c3)ccn2)n1 [Compound I-286, N,N-dimethyl-N-{6-methyl-2′-[(2-methylpyrimidin-4-yl)amino]-3,4′-bipyridin-5-yl}sulfuric diamide]	–
–	91%	Cc1c(-c2ccnc(N)c2)cnc(Cl)c1NS(=O)(=O)c1ccc(F)cc1F [Compound I-287, N-(2′-amino-6-chloro-4-methyl-3,4′-bipyridin-5-yl)-2,4-difluorobenzenesulfonamide]	–
91%	–	Cc1nccc(Nc2cc(-c3cnc(C)c(N4CCCN(C)S4(=O)=O)c3)ccn2)n1 [Compound I-288, 6-methyl-5-(6-methyl-1,1-dioxido-1,2,6-thiadiazinan-2-yl)-N-(2-methylpyrimidin-4-yl)-3,4′-bipyridin-2′-amine]	–
> 99%	–	Cc1nc(Nc2cc(-c3cnc(C)c(NS(=O)(=O)c4ccc(F)cc4F)c3)ccn2)ccc1C#N [Compound I-289, N-{2′-[(5-cyano-6-methylpyridin-2-yl)amino]-6-methyl-3,4′-bipyridin-5-yl}-2,4-difluorobenzene sulfonamide]	–
> 99%	–	CC(=O)Nc1cc(-c2cnc(Cl)c(NS(=O)(=O)c3ccc(F)cc3Cl)c2C)ccn1 [Compound I-290, N-(6-chloro-5-{[(2-chloro-4-fluorophenyl)sulfonyl]amino}-4-methyl-3,4′-bipyridin-2′-yl)acetamide]	–
95%	–	Cc1nccc(Nc2cc(-c3cnc(C)c(NS(=O)(=O)c4ccc(F)cc4F)c3)ccn2)n1 [Compound I-291, 2,4-difluoro-N-{6-methyl-2′-[(2-methylpyrimidin-4-yl)amino]-3,4′-bipyridin-5-yl}benzenesulfonamide]	< 10 nM
99%	–	Cc1ncc(-c2ccnc(Nc3ccnc(C(F)(F)F)n3)c2)cc1C(=O)N1CCC1 [Compound I-292, azetidin-1-yl(6-methyl-2′-{[2-(trifluoromethyl)pyrimidin-4-yl]amino}-3,4′-bipyridin-5-yl)methanone]	–
